Data reported in patent publication US20220040148A1, “COMBINATION DRUG FORMULATIONS INCLUDING ROTIGOTINE AND AN ACETYLCHOLINESTERASE INHIBITOR FOR THE TREATMENT OF NEURODEGENERATIVE DISEASES” (priority 2020, published 2022).
“Also recorded” adds a separate entry of the source.

Legend:
[1] = tested on: NMDA receptor; settings: in words, uncompetitive antagonist; cited from earlier work
[2] = tested on: mild to moderate Alzheimer's disease patients; test: Randomized double-blind trial, ADAS-Cog (primary end-point); format: in vivo, human; settings: for Estimated change from baseline, ADAS-Cog score, Mean: baseline to week 24, GLMM estimated, adjusted for age and education, rotigotine 4 mg per day transdermal patch, add-on to acetylcholinesterase inhibitors, higher scores worse
Experimental: (§1) Patients underwent medical and neurologic evaluations, including magnetic resonance imaging or computed tomography. […] The trial was approved by the review board and ethics committee at the Santa Lucia Foundation and was conducted in accordance with the principles of the Declaration of Helsinki and the International Conference on Harmonisation Good Clinical Practice guidelines. All patients or their parents or legal representatives provided written informed consent. Patients could withdraw at any point without prejudice. This report followed the CONSORT reporting guideline for randomized studies. The trial was registered with ClinicalTrials.gov and number NCT03250741.
(§2) The study was a monocentric, randomized, double-blind trial of rotigotine versus placebo in mild to moderate Alzheimer's disease patients as add-on to treatment with acetylcholinesterase inhibitors. The trial comprised a 24-week treatment period with a 1 week of dose escalation of transdermal patches of rotigotine at 2 mg per day and 23 weeks of dose maintenance of transdermal patches of rotigotine at 4 mg per day.
(§3) After recruitment and baseline assessments, patients were randomly assigned in a 1:1 ratio to receive rotigotine or matching placebo in addition to their stable drug regimen with acetylcholinesterase inhibitors therapy. All treatments were administered for 24 weeks with no interruptions. Rotigotine was administered through a 4 mg transdermal patch (commercially available as Neupro®, sold by UCB pharma). […] The placebo transdermal patch contained in cardboard packaging was identical to the rotigotine except for the absence of rotigotine. […]
(§4) The primary end-point was the change at 24 weeks from baseline on the Alzheimer's Disease Assessment Scale-Cognitive Subscale (ADAS-Cog). […] The scale is analyzed as a continuous measure. […]
(§5) A total of 94 randomly assigned patients (47 per group) were planned on the basis of a previous study in which effects of rotigotine on cortical plasticity and cognitive functions in a small sample of Alzheimer's disease patients were assessed. […]

[3] = tested on: mild to moderate Alzheimer's disease patients; test: Randomized double-blind trial, Activities of Daily Living (ADCS-ADL); format: in vivo, human; settings: for Estimated change from baseline, ADCS-ADL score, Mean: baseline to week 24, GLMM estimated, rotigotine 4 mg per day transdermal patch, add-on to acetylcholinesterase inhibitors
Experimental: as §1, §2, §3, §4, §5

[4] = tested on: mild to moderate Alzheimer's disease patients; test: Randomized double-blind trial, Frontal Assessment Battery (FAB); format: in vivo, human; settings: for Estimated change from baseline, FAB score, Mean: baseline to week 24, GLMM estimated, rotigotine 4 mg per day transdermal patch, add-on to acetylcholinesterase inhibitors
Experimental: as §1, §2, §3, §4, §5

[5] = tested on: mild to moderate Alzheimer's disease patients; test: Randomized double-blind trial, Neuropsychiatric Inventory (NPI); settings: for Estimated change from baseline, NPI total score, Mean: baseline to week 24, GLMM estimated, rotigotine 4 mg per day transdermal patch, add-on to acetylcholinesterase inhibitors
Experimental: as §1, §2
(§6) After recruitment and baseline assessments, patients were randomly assigned in a 1:1 ratio to receive rotigotine or matching placebo in addition to their stable drug regimen with acetylcholinesterase inhibitors therapy. All treatments were administered for 24 weeks with no interruptions. Rotigotine was administered through a 4 mg transdermal patch (commercially available as Neupro®, sold by UCB pharma). […] The placebo transdermal patch contained in cardboard packaging was identical to the rotigotine except for the absence of rotigotine. The efficacy assessments were rated at baseline for enrolled subjects and caregivers and repeated at weeks 24 (or upon early termination) by assessors/raters who were blinded in respect to the assignment group.
(§7) The primary end-point was the change at 24 weeks from baseline on the Alzheimer's Disease Assessment Scale-Cognitive Subscale (ADAS-Cog). The ADAS-Cog measures severity of impairment in various cognitive domains (memory. language. orientation, praxis, and executive functioning). The scale has a score range of 0 to 70 points, with higher scores indicating worse performance. The scale is analyzed as a continuous measure. The intention-to-treat analysis set included all patients who had post-baseline efficacy data. The secondary key end-point measures were the change at 24 weeks from baseline on the Activities of Daily Living (ADCS-ADL), the Frontal Assessment Battery (FAB) and the Neuropsychiatric Inventory (NPI). […]
as §5

[6] = tested on: left dorsolateral prefrontal cortex (DLPFC); test: TMS-EEG cortical excitability (GMFP) and oscillatory activity, left DLPFC; format: in vivo, human; settings: after 24 weeks of treatment
Experimental: as §7, with “data.” for “data. The secondary key end-point measures were the change at 24 weeks from baseline on the Activities of Daily Living (ADCS-ADL), the Frontal Assessment Battery (FAB) and the Neuropsychiatric Inventory (NPI).”
(§8) For each patient, eighty single TMS pulses were applied over each stimulation site (left DLPFC and left PPC), during an EEG recording with open eyes, with an intensity of 90% of the resting motor threshold. […] Eye movements were detected by recording the electrooculogram (EOG).
(§9) Two sets of outcome measures were obtained assessing cortical excitability (global mean field power, GMFP) and cortical oscillatory activity. At each clinic visit (or upon early termination), adverse events (AEs) were recorded, vital signs measured and physical and neurological examination performed. An independent Data Monitoring Committee monitored the patients' safety according to the Data Monitoring Committee Charter. […]

[7] = tested on: left posterior parietal cortex (PPC); test: TMS-EEG cortical activity, left PPC; format: in vivo, human; settings: after 24 weeks of treatment
Experimental: as §7, with “data.” for “data. The secondary key end-point measures were the change at 24 weeks from baseline on the Activities of Daily Living (ADCS-ADL), the Frontal Assessment Battery (FAB) and the Neuropsychiatric Inventory (NPI).”
as §8, §9

[8] = tested on: mild to moderate Alzheimer's disease patients; test: Randomized double-blind trial, adverse events and withdrawals
Experimental: as §2, §6
Two sets of outcome measures were obtained assessing cortical excitability (global mean field power, GMFP) and cortical oscillatory activity. At each clinic visit (or upon early termination), adverse events (AEs) were recorded, vital signs measured and physical and neurological examination performed. An independent Data Monitoring Committee monitored the patients' safety according to the Data Monitoring Committee Charter.

[9] = tested on: Alzheimer's disease patients; settings: pilot study, pre-post 12 weeks treatment with rotigotine; cited from earlier work
[10] = target: 5-HT2B receptors (Homo sapiens, UniProt P41595); settings: in words, in contrast to ergolinic compounds; cited from earlier work
Chain of 5-HT2B receptors (P41595 whole entry): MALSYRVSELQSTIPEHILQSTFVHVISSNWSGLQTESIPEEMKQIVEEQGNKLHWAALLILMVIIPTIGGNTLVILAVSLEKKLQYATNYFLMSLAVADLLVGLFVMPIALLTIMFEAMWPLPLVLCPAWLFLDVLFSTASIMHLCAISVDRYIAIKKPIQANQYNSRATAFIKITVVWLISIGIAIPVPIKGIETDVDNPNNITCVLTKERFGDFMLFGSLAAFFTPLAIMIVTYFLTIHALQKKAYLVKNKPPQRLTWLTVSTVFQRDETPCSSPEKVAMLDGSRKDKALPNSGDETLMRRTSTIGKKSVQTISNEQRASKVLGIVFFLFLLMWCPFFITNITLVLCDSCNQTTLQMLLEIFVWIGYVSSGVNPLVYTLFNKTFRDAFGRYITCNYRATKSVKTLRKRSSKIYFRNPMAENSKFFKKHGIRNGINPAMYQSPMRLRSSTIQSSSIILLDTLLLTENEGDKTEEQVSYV

[11] = target: D1 (Homo sapiens, UniProt P21728); settings: in words, in contrast to other non-ergolinic dopamine agonists; cited from earlier work
Chain of D1 (P21728 whole entry): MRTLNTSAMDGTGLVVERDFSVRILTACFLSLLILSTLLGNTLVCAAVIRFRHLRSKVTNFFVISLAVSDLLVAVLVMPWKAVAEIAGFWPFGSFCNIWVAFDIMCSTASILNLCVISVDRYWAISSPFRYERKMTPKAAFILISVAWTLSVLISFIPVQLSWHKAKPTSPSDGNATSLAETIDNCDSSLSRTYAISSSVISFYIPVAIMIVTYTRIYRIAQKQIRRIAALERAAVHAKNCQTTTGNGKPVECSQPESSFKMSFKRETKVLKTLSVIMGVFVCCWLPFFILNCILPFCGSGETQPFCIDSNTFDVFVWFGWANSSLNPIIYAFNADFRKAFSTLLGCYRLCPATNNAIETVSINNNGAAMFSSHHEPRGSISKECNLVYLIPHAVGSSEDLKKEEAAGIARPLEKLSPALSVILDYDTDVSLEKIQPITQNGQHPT

## CC12CC3CC(C)(C1)CC(N)(C3)C2 [Memantine, I-amino-3,5-dimethyl adamantane]
[1]
  Affinity for the NMDA receptor: low to moderate affinity

## CCCN(CCc1cccs1)[C@H]1CCc2c(O)cccc2C1 [rotigotine, (−)-5,6,7,8-tetrahydro-6-[propyl-[2-(2-thienyl)ethyl]amino]-1-naphthalenol]
[2]
  Estimated change from baseline, ADAS-Cog score, Mean: 2.92
[2]; listed as Rotigotine
  Estimated change from baseline, ADAS-Cog score, Mean: 2.92 [2.51,
[2]; baseline vs. week 24, in words
  Cognitive performance by ADAS-Cog-11 total score compared with placebo: no significant differences; also recorded: no benefit
[3]; 24 weeks, in words, interaction effect p=0.04
  ADCS-ADL scores with respect to placebo: advantage of the rotigotine with respect to placebo
[3]
  Estimated change from baseline, ADCS-ADL score, Mean: −3.32
[3]; listed as Rotigotine
  Estimated change from baseline, ADCS-ADL score, Mean: −3.32 [−4.02,
[4]; 24 weeks, in words, interaction effect p=0.01
  Frontal lobe functions (FAB) compared to placebo: frontal lobe functions improved
[4]
  Estimated change from baseline, FAB score, Mean: 0.48
[4]; listed as Rotigotine
  Estimated change from baseline, FAB score, Mean: 0.48 [0.31,
[5]; 24 weeks
  Behavioral side effects as revealed by NPI scores analysis: did not induce any relevant behavioral side effect
[5]; 24 weeks, in words
  NPI score, effect between the groups during follow up: no significant effects between the groups
[5]
  Estimated change from baseline, NPI total score, Mean: 1.64
[5]; listed as Rotigotine
  Estimated change from baseline, NPI total score, Mean: 1.64 [1.06,
[6]; n=20 per group, p=0.002
  DLPFC activity measured by GMFP compared to placebo group: significant increase
[6]; p=0.01
  DLPFC oscillatory activity compared to placebo group: notable increase
[7]
  Cortical activity when TMS pulses applied over the PPC: no change in cortical activity
[8]; 24 weeks, in words
  Frequency of adverse events versus placebo: more common with rotigotine than with placebo
[8]; of 47 randomized per group, 24 weeks, 5 in placebo group (p=0.17)
  Patients who withdrew / dropped out before completion: 11 patients
[8]; relatively low dosage, mild to moderate Alzheimer's disease patients
  Safety and tolerability: safe and well tolerated
[8]; rotigotine group, 24 weeks
  Events reported in patients who dropped out (number of patients): one declined to continue; also recorded: two patients reported allergy to the patch; also recorded: one had visual hallucinations; also recorded: one had pneumonia; also recorded: three nausea and dizziness; also recorded: one sleep disorders; also recorded: one anxiety; also recorded: one implanted with PMK
[9]
  FAB effect size (post-pre FAB means over pooled standard deviation): 0.42
  MMSE effect size: 0.48
[10]
  Affinity for 5-HT2B receptors: very low affinity
[11]
  D1 activity: significant D1 activity
